A short description of data set [1]: Spectral sensitization of photographic silver halide emulsion. Also on record: Yellow filter sensitivity (SY) / Red filter sensitivity (SR): scale not given here. The note with it: for Spectral sensitization performance (in words): added to emulsion as aqueous solution or aqueous dispersion; for Maximum Sensitization: spectrogram, tungsten light source of 2666° K.; for Yellow filter sensitivity (SY): yellow filter SC-50, 5 seconds exposure; for Yellow filter sensitivity (SY) / Red filter sensitivity (SR): standard point Fog+0.2; for Red filter sensitivity (SR): red filter SC-60, 5 seconds exposure. How it is done:
A silver halide emulsion comprising pure silver bromide and having a cubic crystal form (the area ratio of the plane to the entire surface area of grain being 92%) was prepared and subjected to a sulfur sensitization treatment. The average diameter of silver halide grains contained in the emulsion was 0.68 μm, and 0.74 mol of silver halide per kg of emulsion was contained in the emulsion. One kg of the emulsion was weighed in each of pots. An aqueous solution of each of the compounds of formula (I) indicated in Tables 4 and 5 was added to the pot, and the mixture was mixed with stirring at 40° C. For the purpose of comparison, comparative compounds 1 and 2 wherein counter ion was iodide were dispersed in water and added to respective pots.
Further, 4-hydroxy-6-methyl-1,3,3a,7-tetraazaindene in an amount of 0.1 g/kg of emulsion, sodium salt of 2,4-dichloro-6-hydroxy-1,3,5-triazine in an amount of 0.1 g/kg of emulsion and sodium dodecylbenzenesulfonate in an amount of 0.1 g/kg of emulsion in order were added thereto. The emulsion was then coated on a polyethylene terephthalate film to obtain a photographic material.
Each of these samples was exposed through an optical wedge for 5 seconds by using a yellow filter (SC-50, a product of Fuji Photo Film Co., Ltd.) or a red filter (SC-60, a product of Fuji Photo Film Co., Ltd.) and tungsten light (5400° K.).
A spectrogram was obtained by using a grating spectrograph having a tungsten light source of 2666° K., and the maximum sensitization was measured.
After exposure, the samples were developed at 20° C for 4 minutes by using the following developing solution. The density of each of the developed films was measured by using a densitometer (manufactured by Fuji Photo Film Co., Ltd. Spectral sensitivity, that is, yellow filter sensitivity (SY) or red filter sensitivity (SR), sensitivity (SB) in the sensitive region inherent in silver halide, and fog were determined. Sensitivity was determined when the standard point of optical density was referred to as (Fog+0.2). Composition of Developing Solution […]
Two volumes of water were added thereto to obtain a working solution when used.

Data set [2] can be described thus: Solubility in solvents (dissolution in incubator, filtration through microfilter, visible absorption). It is filed as physicochemical. The following applies: for Water solubility (in words) / solubility at 12 h: water. An excerpt:
The solubility of some of the compounds within formula (I) was accurately measured.
The measurement of solubility was made in the following manner.

Read-outs that look alike come from different tables or passages of the source.

Consider 4 compounds from patent publication US5424442A, “Water-soluble methine compounds useful in photographic silver halide emulsion containing the same” (Fuji Photo Film Co., Ltd., priority 1990, dated 1995).

For `CCN1C(=CC=c2sc(=Cc3sc(-c4ccccc4)c(-c4ccccc4)[n+]3CC)n(CC)c2=O)Sc2ccccc21` [Comparative Compound 1, reference compound], the “Spectral sensitization performance (in words)” value in data set [1] is listed as “the desired spectral sensitivity cannot be obtained”. For the same compound, in data set [1] (Table 4), the “Maximum Sensitization” value came to 638 nm and the “Yellow filter sensitivity (SY)” value stood at 100. In addition, in data set [2], the “Water solubility (in words)” value is reported as “low solubility in water”.

In the case of `CCn1c(=CC2=CC(=Cc3sc4cc(C)c(C)cc4[n+]3CC)CC(C)(C)C2)sc(=C2Sc3ccccc3N2C)c1=O` [Comparative Compound 2, reference compound], the “Spectral sensitization performance (in words)” value in data set [1] is recorded as “the desired spectral sensitivity cannot be obtained”. Also, in data set [1] (Table 5), the “Red filter sensitivity (SR)” value came out at 100 and the “Maximum Sensitization” value stood at 747 nm. Also, in data set [2], the “Water solubility (in words)” value is recorded as “low solubility in water”.

For `CCn1c(=Cc2oc3c4ccccc4ccc3[n+]2CC)sc(=C2Sc3ccccc3N2C)c1=O` [Compound 134], in data set [1] (Table 4), the “Maximum Sensitization” value is listed as 520 nm and the “Yellow filter sensitivity (SY)” value stood at 1350. Besides, the “Solubility in MeOH” value in data set [2] (MeOH, 37° C., 12 hours, Table 2, 720 min) was > 10000 µg/mL. Besides, in data set [2] (H2O, 37° C., 12 hours, Table 2, read-out: Solubility in H2O), the solubility (commonly the concentration that dissolves in the medium under given conditions) at 12 h was 6900 µg/mL.

Take `CCn1c(=CC2=CC(=Cc3sc4ccccc4[n+]3CC)Oc3ccccc32)sc(=C2Sc3ccc(OC)cc3N2C)c1=O` [Compound 150]: in data set [1] (Table 5), the “Red filter sensitivity (SR)” value is recorded as 905 and the “Maximum Sensitization” value is on record as 695 nm. In addition, the solubility at 12 h in data set [2] (Table 3, read-out: Solubility in Water) stood at 2100 µg/mL.
